Results: US4606908A, “Methods and compositions for plasma and organ imaging” (Washington Research Foundation, priority 1983, dated 1986)

Test system: isolated rabbit hearts
Assay: extraction and retention of tracer in isolated perfused rabbit hearts (indicator dilution, coronary sinus outflow)
Set-up: species or system New Zealand white rabbits
Conditions: isolated rabbit heart
Protocol: For isolated heart studies, after anesthesia with pentobarbital, the hearts were removed from 2 to 3 kg New Zealand white rabbits and mounted on a perfusion system in which the flow was controlled and the perfusion pressure monitored. The perfusate was (mM): Na 142, K 5.4, Mg 1.0, Ca 2.0, Cl 141, HCO3 12, PO4 0.435, glucose 11.0, and insulin 2 units/L, at 37° C. The coronary sinus flow and Thebesian flow into the right ventricle were collected via cannula placed through the pulmonary artery and a total effluent flow measured with graduated cylinder and stopwatch. Reference and test tracers were simultaneously injected as a mixed bolus into the aortic cannula, which supplied only the coronary system. Samples of the coronary sinus effluent were taken from the cannulated pulmonary artery at intervals of 1, 2, 4 or 10 seconds; higher sampling rates were used during the first part of the curves. The outflow of response was calculated as the fraction of dose emerging per unit time, h(t), at each time t:
F is the perfusate flow ml×s^-1 ;
C(t) is the concentration of tracer, cpm/ml; and
q0 is the injected dose of tracer, cpm.

CNCCCN1c2ccccc2CCc2ccc([125I])cc21 [^125 I-DMI]
retentions at 10-20 min (10-20 min): about 80%
maximal instantaneous extractions (37° C., plasma flows up to 1.5 ml/min×g): 96%
Overall retentions at 1 min (1 min, minimum value, indicator possibly impure): about 91%
